Values after ≈ are worked out from the molar mass of the structure shown. Where two headings read alike, the source gives them in different places.

The subject of one data set is normal ICR mice. Put plainly: Hypoglycemic effect, oral glucose tolerance in normal ICR mice. The data set is classed as in vivo. The following applies: 10 mg/kg by gavage, glucose 4 g/kg 15 minutes after administration, 10 mg/kg. As to the method:
To observe the effects on oral glucose tolerance of the compounds of Example 1-4 and Example 8-12 in normal ICR mice (SINO-BRITSH SIPPR/BK LAB.ANIMAL LTD., CO), the hypoglycemic effects in vivo have been evaluated using blood-glucose meter to measure and analyze the sugar content of the samples at different time points during 2 hours. The samples were taken from the mouse's tail.
The administration dose was 10 mg/kg, and the blank was administered with water. Both groups contained 5% DMSO.
The mice were administered by gavage. 4 g/kg of 10% glucose solution was administered (0.8 mL to each mice) 15 minutes after administration.
The mice were administered according to above dose (the blank group was administrated with 5% DMSO aqueous solution) and the blood sugar value was measured (−15 minutes).
15 minutes after administration, the mice were administered of 4 g/kg of 20% glucose solution and the values of blood sugar were tested by Roche ACCU-CHEK at 0, 15, 30, 45, 60, 120 minutes.

Another data set deals with T1, DPP-VIII (Homo sapiens, UniProt Q6V1X1).
T1 construct: purchased Bioscience 80080
T1 sequence (Q6V1X1 whole entry): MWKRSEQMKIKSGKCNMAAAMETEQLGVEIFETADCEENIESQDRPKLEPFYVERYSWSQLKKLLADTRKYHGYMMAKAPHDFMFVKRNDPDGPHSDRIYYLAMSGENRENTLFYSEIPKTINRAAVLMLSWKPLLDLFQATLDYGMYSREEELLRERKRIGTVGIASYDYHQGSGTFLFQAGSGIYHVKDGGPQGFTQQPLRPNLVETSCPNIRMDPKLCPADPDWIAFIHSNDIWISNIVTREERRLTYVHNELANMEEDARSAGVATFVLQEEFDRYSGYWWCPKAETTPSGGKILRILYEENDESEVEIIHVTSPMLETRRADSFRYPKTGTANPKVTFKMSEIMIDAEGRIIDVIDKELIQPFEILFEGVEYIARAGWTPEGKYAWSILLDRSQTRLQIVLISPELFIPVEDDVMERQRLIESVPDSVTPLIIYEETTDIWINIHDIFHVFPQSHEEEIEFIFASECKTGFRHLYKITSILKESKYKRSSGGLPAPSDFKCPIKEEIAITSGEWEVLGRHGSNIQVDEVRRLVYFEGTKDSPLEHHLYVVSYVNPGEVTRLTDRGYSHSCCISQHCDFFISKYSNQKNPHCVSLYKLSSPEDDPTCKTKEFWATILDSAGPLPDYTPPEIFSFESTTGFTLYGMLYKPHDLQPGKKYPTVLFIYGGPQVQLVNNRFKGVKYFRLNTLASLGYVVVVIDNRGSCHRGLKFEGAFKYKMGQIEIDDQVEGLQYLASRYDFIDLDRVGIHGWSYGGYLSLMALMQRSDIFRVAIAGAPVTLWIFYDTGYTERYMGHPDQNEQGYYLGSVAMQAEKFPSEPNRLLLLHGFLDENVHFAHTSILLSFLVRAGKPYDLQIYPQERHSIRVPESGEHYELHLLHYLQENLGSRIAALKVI
Put plainly: DPP-VIII inhibition, Promega DPPIV-Glo Protease Assay. It is filed as biochemical. As to conditions: read-out: IC50 DPP8. Here is the method:
(§1) The compounds of the present invention were tested to determine their DPP-IV, DPP-VIII, DPP-IX inhibition activity according to the following methods. The half inhibition concentrations IC50 (the concentration of the test compound showing 50% inhibition to the enzyme activity) of each compound were determined by reaction test and calculation of the mixture of fixed amounts of enzyme and substrate with several different concentrations of the test compounds.
(§2) The compounds of the present invention were tested to determine the DPP-IV, DPP-VIII, DPP-IX inhibition activity in the following tests using Promega DPPIV-Glo™ Protease Assay (Cat No. G8350/G8351) Kit, wherein:
b. DPP-VIII enzyme bought from Bioscience, Catalog no. 80080;
(§3) The preparation procedure of the conventional reagent such as DPPIV-Glo buffer, luciferin reagents needed in the test and the detail operation of the test can refer to the specifications of the kits. The assay was carried out as following steps:
(§4) The tested compounds were dissolved in DMSO to prepare a series of different concentrations of the test compound solution. DPPIV-Glo buffer and the freezing luciferin detection reagent were equilibrated to room temperature. The luciferin detection reagent was dissolved in moderate buffer in a brown flask to form a solution. Then DPP-IV-Glo. was dissolved in ultrapure water to give the appropriate concentration. The substrate solution and the luciferin detection reagent solution were mixed sufficiently in an appropriate ratio (the ratio of the invention is 1:49), and the mixture was layed at room temperature for 30-60 minutes. Tris buffer (2 mM, pH 8.0), the test compounds and DPP-IV (DPP-VIII or DPP-IX) were mixed and then transferred to a 96-well plate. Each test contains double-well of three-well control. The same volume of DMSO was added to the negative control and blank control. Then the 96-well plate was added with mixed solution of luciferin detection reagent and substrate to initiate the reaction. The 96-wells plate was incubated at room temperature on a plate shaker for 40 minutes after sealed. The strength of the fluorescent signal in each well was determined by microplate reader and the inhibition rate to the enzyme of the compound at this concentration was calculated by the formula as following: inhibitory rate: IR=[1−(S−B)/(N−B)]*100% • S: value of the sample • B: value of the blank control • N: value of the negative control
(§5) IC50 of the test compounds can be calculated by the inhibition rate at different concentration.

The target in a further data set is T2, DPP-IX (Homo sapiens, UniProt Q86TI2).
T2 construct: purchased Bioscience 80090
T2 sequence (Q86TI2 whole entry): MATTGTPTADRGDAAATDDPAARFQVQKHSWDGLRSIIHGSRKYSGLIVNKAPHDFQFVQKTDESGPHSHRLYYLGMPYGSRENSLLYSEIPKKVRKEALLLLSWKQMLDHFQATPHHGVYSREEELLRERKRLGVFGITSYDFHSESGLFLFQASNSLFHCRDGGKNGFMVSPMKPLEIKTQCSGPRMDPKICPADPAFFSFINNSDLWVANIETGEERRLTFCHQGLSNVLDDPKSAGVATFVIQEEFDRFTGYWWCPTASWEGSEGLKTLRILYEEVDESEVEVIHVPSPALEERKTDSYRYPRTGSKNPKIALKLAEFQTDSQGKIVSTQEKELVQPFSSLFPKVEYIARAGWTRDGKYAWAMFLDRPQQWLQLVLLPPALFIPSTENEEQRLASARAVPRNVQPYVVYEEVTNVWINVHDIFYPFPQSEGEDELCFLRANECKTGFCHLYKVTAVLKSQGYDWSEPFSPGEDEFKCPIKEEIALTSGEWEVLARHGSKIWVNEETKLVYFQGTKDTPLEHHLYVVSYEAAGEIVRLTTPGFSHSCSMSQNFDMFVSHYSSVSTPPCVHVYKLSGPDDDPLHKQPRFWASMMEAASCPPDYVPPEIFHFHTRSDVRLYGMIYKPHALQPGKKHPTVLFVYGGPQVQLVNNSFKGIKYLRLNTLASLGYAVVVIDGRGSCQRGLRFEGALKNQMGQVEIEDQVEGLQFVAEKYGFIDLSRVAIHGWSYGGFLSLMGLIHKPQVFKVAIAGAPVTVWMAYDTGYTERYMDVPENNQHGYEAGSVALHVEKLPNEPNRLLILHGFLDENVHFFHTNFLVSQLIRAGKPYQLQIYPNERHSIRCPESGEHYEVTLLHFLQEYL
Put plainly: DPP-IX inhibition, Promega DPPIV-Glo Protease Assay. The data set is classed as biochemical. The following applies: read-out: IC50 DPP9. Here is the method:
as §1, §2
c. DPP-IX enzyme bought from Bioscience, Catalog no. 80090.
as §3, §4, §5

The nature of data set [1]: Pharmacokinetics assay in rats (LC/MS/MS plasma concentration). It is filed as in vivo, SD rats. The following applies: for F: intragastric 3.0 mg/kg (as free base), absolute bioavailability from AUC0-t vs vein injection. The text has this: The compound of Example 3 was administrated intragastrically or tail vein injection to rats and the compounds of Example 1-4, Example 9 and Example 11-12 were administrated intragastrically to determine the drug concentration in plasma at different time points by LC/MS/MS measurement. The pharmacokinetics of the compounds of the present invention was studied and evaluated in rats. And the oral absolute bioavailability was investigated.
Compounds of Example 1-4, Example 9 and Example 11-12.
[…] healthy adult SD rats, male and female in half, were purchased from SINO-BRITSH SIPPR/BK LAB.ANIMAL LTD., CO, License number: SCXK (Shanghai) 2008-0016.
Vein injection group: the proper weighed test compound was dissolved in 0.5 mL of DMSO by ultrasound and then diluted with normal saline to 15 mL to form a 0.3 mg/mL solution.
Intragastrically administered group: the proper weighed test compound was dissolved in 0.5% CMC-Na by ultrasound to form a 0.3 mg/mL of suspension.
32 healthy adult SD rats, male and female in half, were divided into 8 groups so that each group consisted 4 rats. After an overnight fast, the rats were tail vein injected of the compound of Example 3 and intragastrically administered the compound of Example 3 and the salt thereof, at a dose of 3.0 mg/kg (calculated as the free base form) and a volume of 10 mL/kg.
Blood samples (0.2 mL) of the rats in vein injection group were taken from eye socket at pre administration and at 2, 15, 30 minutes and 1.0, 2.0, 4.0, 6.0, 8.0, 12.0, 24.0 hours post administration, which were stored in heparinized tubes and centrifuged for 10 minutes at 3,500 rpm. The plasma samples were stored at −20° C. until analysis. The rats were fed 2 hours after administration.
Blood samples of the rats in intragastrically administered group were taken at pre administration and at 0.5, 1.0, 2.0, 3.0, 4.0, 6.0, 8.0, 12.0, 24.0 hours post administration. The samples were treated with the same method as mentioned above.
50 μL of internal standard solution and 150 μL of methanol were added to 50 μL of rat plasma obtained at various time points after administration. Then the mixture was mixed for 3 minutes using a vortexer and centrifuged for 10 minutes at 13,500 rpm. 10 μL of the supernatant was analyzed by LC/MS/MS.
The compartmental model of pharmacokinetics was fitted for the test compounds and the major pharmacokinetic parameters were calculated by DAS 2.0 software in which Cmax and tmax were the actually measured values. The absolute bioavailability was calculated by AUC0-t taken from post administration and vein injection.

The next data set addresses T3, DPP-IV (Homo sapiens, UniProt P27487).
T3 construct: purchased Calbiochem 317630
Description: DPP-IV inhibition, Promega DPPIV-Glo Protease Assay. It is filed as biochemical. As to the method: as §1, §2
a. DPP-IV enzyme bought from Calbiochem, Catalog no. 317630;
as §3, §4, §5

The nature of data set [2]: Solubility experiment in four systems. The data set is classed as physicochemical. Here is the method:
According to the conventional solubility measurement, the solubility of the test samples were determined in four different systems: phosphate buffer solution (PBS, pH=7.4), methanol, 0.1% hydrochloric acid and water.

[3] abbreviates: intragastric 3.0 mg/kg, phosphate.

T3 sequence (P27487 whole entry): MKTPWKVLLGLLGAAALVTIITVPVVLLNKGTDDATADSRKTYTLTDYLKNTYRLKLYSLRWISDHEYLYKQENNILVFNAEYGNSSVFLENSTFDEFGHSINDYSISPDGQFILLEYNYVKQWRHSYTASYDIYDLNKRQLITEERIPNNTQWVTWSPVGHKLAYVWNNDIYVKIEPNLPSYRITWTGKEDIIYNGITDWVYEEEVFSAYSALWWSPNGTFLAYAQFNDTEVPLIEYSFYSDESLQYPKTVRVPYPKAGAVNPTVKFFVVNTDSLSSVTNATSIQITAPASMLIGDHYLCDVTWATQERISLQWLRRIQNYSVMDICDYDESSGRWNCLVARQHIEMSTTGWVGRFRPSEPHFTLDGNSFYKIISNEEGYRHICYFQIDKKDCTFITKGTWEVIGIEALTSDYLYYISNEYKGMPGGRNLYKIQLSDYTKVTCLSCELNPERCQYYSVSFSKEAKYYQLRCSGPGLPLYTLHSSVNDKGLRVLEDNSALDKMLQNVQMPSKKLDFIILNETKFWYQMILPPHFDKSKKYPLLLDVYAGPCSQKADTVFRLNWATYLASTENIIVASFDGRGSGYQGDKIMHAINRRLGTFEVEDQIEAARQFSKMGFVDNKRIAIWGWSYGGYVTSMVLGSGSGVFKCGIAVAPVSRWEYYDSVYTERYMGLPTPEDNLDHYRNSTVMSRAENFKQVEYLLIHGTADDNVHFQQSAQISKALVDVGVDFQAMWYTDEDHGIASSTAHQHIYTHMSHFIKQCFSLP

In the case of `N[C@@H](CC(=O)N1CCn2c(C(F)(F)F)nc(C(=O)O)c2C1)Cc1cc(F)c(F)cc1F` [Example 2, (R)-7-[3-Amino-4-(2,4,5-trifluorophenyl)butanoyl]-3-trifluoromethyl-5,6,7,8-tetrahydro-imidazo[1,5-a]pyrazine-1-carboxylic acid phosphate], in the data set with normal ICR mice (phosphate), the “Hypoglycemic rate of blood sugar of 30 minutes after administration” value (“Hypoglycemic rate” for short) amounted to 29.96%. In addition, the IC50 at DPP-VIII worked out at 400 µM. Besides, at DPP-IX, the IC50 amounted to 185 µM. The “pharmacokinetics and bioavailability (conclusion in words)” value in data set [1] (compared with other compounds) is on record as “improved obviously”. In data set [1] (phosphate), this molecule displayed an F of 8.63%. In data set [1] (setting [3]), the AUC(0-t) was 198.1 ± 57.4 ng·h/mL, the CL/F came out at 270 ± 75.8 mL/min/kg, the Cmax was 66.6 ± 36.4 ng/mL and the mean residence time (MRT) is 4.05 ± 3.66 h. Further, in data set [1] (setting [3]), the Tmax was 0.92 ± 0.58 h and the t1/2 is given as 1.69 ± 1.24 h. This molecule also displayed an IC50 against DPP-IV of 0.015 µM. The “Solubility Value, 0.1% HCl” value in data set [2] (0.1% hydrochloric acid, phosphate) stood at 32.5 mg/mL. The “Solubility Value, PBS (pH 7.4)” value in data set [2] (PBS pH 7.4, phosphate) is 20.2 mg/mL. The “Solubility Value, methanol” value in data set [2] (methanol, phosphate) is 37.5 mg/mL. Further, in data set [2] (water, phosphate), the “Solubility Value, water” value stood at 26.1 mg/mL.

On to `N[C@@H](CC(=O)N1CCn2c(C(F)(F)F)nc(C(=O)O)c2C1)Cc1cc(F)c(F)cc1F` [Example 3, (R)-7-[3-Amino-4-(2,4,5-trifluorophenyl)butanoyl]-3-trifluoromethyl-5,6,7,8-tetrahydro-imidazo[1,5-a]pyrazine-1-carboxylic acid], for which the “Hypoglycemic rate” value with normal ICR mice was 25.60%. The IC50 on DPP-VIII came to 236 µM. At DPP-IX, the IC50 came out at 125 µM. The half-life in data set [1] (both sexes, SD, rat, plasma, iv, 3 mg/kg, tail vein injection 3.0 mg/kg) was 2.35 ± 1.9 h. In addition, the AUC(0-t) in data set [1] (both sexes, SD, rat, plasma, iv, 3 mg/kg, tail vein injection 3.0 mg/kg, read-out: AUC0-t) is 2300 ± 353 ng·h/mL. Besides, the MRT in data set [1] (both sexes, SD, rat, plasma, iv, 3 mg/kg, tail vein injection 3.0 mg/kg, read-out: MRT) came out at 0.22 ± 0.06 h. Besides, in data set [1] (intragastric 3.0 mg/kg), the AUC(0-t) stood at 58.3 ± 17.3 ng·h/mL, the CL/F was 862 ± 267 mL/min/kg, the Cmax was 13.4 ± 5.6 ng/mL and the MRT is 4.45 ± 1.01 h. Moreover, in data set [1] (intragastric 3.0 mg/kg), the Tmax was 1.00 ± 0.00 h and the t1/2 came out at 2.73 ± 0.73 h. This molecule also registered a F in data set [1] of 2.54%. Besides, the CL/F in data set [1] (tail vein injection 3.0 mg/kg) was 22.2 ± 3.33 mL/min/kg. The molecule further showed an IC50 on DPP-IV of 0.013 µM. In addition, the “Solubility Value, 0.1% HCl” value in data set [2] (0.1% hydrochloric acid) is on record as 20.5 mg/mL (≈ 45.5 mM). In addition, the “Solubility Value, PBS (pH 7.4)” value in data set [2] (PBS pH 7.4) came out at 7.0 mg/mL. Further, the “Solubility Value, methanol” value in data set [2] (methanol) is reported as 32.7 mg/mL (≈ 72.6 mM). Also, the “Solubility Value, water” value in data set [2] (water) worked out at 9.2 mg/mL (≈ 20.4 mM).

With `N[C@@H](CC(=O)N1CCn2c(C(F)(F)F)nc(C(=O)[O-])c2C1)Cc1cc(F)c(F)cc1F.[Li+]` [Example 5, Lithium (R)-7-[3-amino-4-(2,4,5-trifluorophenyl)butanoyl]-3-trifluoromethyl-5,6,7,8-tetrahydro-imidazo[1,5-a]pyrazine-1-carboxylate], the IC50 amounted to 80.5 µM on DPP-VIII, 50.6 µM at DPP-IX and 0.025 µM at DPP-IV. The solubility in data set [2] (0.1% hydrochloric acid, simulated gastric fluid, 0.1% hydrochloric acid, read-out: Solubility Value, 0.1% HCl) is 101 mg/mL; in data set [2] (methanol, organic solvent or mixture, methanol, read-out: Solubility Value, methanol), 50.3 mg/mL; in data set [2] (phosphate buffer solution (PBS), pH 7.4, aqueous buffer, PBS pH 7.4, read-out: Solubility Value, PBS (pH 7.4)), 60.5 mg/mL; in data set [2] (water, read-out: Solubility Value, water), 40.2 mg/mL.

Take `N[C@@H](CC(=O)N1CCn2c(C(F)(F)F)nc(C(=O)O)c2C1)Cc1cc(F)c(F)cc1F` [Example 8, Triethylammonium (R)-7-[3-amino-4-(2,4,5-trifluorophenyl)butanoyl]-3-(trifluoromethyl)-5,6,7,8-tetrahydro-imidazo[1,5-a]pyrazine-1-carboxylate]: in the data set with normal ICR mice, the “Hypoglycemic rate” value worked out at 19.82%. For the same molecule, the IC50 is 152 µM at DPP-VIII and 136 µM on DPP-IX. In addition, the “Solubility Value, 0.1% HCl” value in data set [2] (0.1% hydrochloric acid) is 8.3 mg/mL. In addition, the “Solubility Value, PBS (pH 7.4)” value in data set [2] (PBS pH 7.4) was 0.2 mg/mL. In addition, the “Solubility Value, methanol” value in data set [2] (methanol) came to 20.1 mg/mL. Moreover, the “Solubility Value, water” value in data set [2] (water) is on record as 0.5 mg/mL.

For the molecule `N[C@@H](CC(=O)N1CCn2c(C(F)(F)F)nc(C(=O)O)c2C1)Cc1cc(F)c(F)cc1F` [Example 10, 2-Hydroxyethyl(trimethyl)ammonium (R)-7-[3-Amino-4-(2,4,5-trifluorophenyl)-butanoyl]-3-trifluoromethyl-5,6,7,8-tetrahydro-imidazo[1,5-a]pyrazine-1-carboxylate], the “Hypoglycemic rate” value with normal ICR mice came out at 20.92%. For the same molecule, the IC50 was 210 µM at DPP-VIII, 166 µM at DPP-IX and 0.023 µM against DPP-IV. Moreover, the “Solubility Value, 0.1% HCl” value in data set [2] (0.1% hydrochloric acid) is 15.2 mg/mL. The “Solubility Value, PBS (pH 7.4)” value in data set [2] (PBS pH 7.4) came out at 1.2 mg/mL. In data set [2] (methanol), the “Solubility Value, methanol” value was 40.3 mg/mL. The “Solubility Value, water” value in data set [2] (water) came to 1.5 mg/mL.

These data come from patent publication US8518946B2, “Salts of (R)-7-[3-amino-4-(2,4,5-trifluorophenyl)butanoyl]-3-trifluoromethyl-5,6,7,8-tetrahydroimidazo[1,5-a] pyrazine-1-carboxylic acid, preparation method and medical use thereof” (Jiangsu Hengrui Medicine Co., Ltd., priority 2009, dated 2013).
